Like-named read-outs stand apart in the source and are kept apart here.

Holding throughout (assay type): cell-based
In assay [1] the test system is HTT mRNA. Kind of assay: Gene panel canonical junction qPCR assay, decrease in CJ mRNA, Table 3. The procedure, abridged:
(§1)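 Canonical exon-junction (CJ) transcript measured by 5′ nuclease RT-qPCR, normalized to GAPDH, GUSB or PPIA and to DMSO control (2^(−ΔΔCt)). A673 or K562 cells treated 24 h at 37° C with an 11-point 3-fold dilution series, top 10 uM, DMSO ≤0.25%. IC50 from 4-parameter logistic fit of percentage CJ decrease.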

Assay [2] relates to MYB mRNA. The description is as above. The procedure, abridged: as §1
The subject of assay [3] is SH-SY5Y (human neuroblastoma) cells. Kind of assay: Cell viability, Cell Titer Glo 2.0 assay. The settings on record: read-out: Viability SHSY5Y.3 GI50. The procedure, abridged:
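SH-SY5Y cells were exposed to serially diluted compounds in IMDM with 10% FBS and 0.1% DMSO for 72 hours at 37° C., 5% CO2. Viability was measured by CellTiter-Glo 2.0 luminescence, with medium-only wells as blank.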

For assay [4], the system named is MYB mRNA. The assay is described as follows: Splicing RT-qPCR assay (THP), Table 2A.
Assay [5] concerns HTT mRNA. The assay is described as follows: Splicing RT-qPCR assay (THP), Table 2A.
Where [6] appears, read: decrease in canonical junction (CJ) mRNA, gene panel qPCR, Table 3.
Setting [7] is: Table 2A (THP), AJ mRNA increase, read-out: MYB AJ (increase in alternative junction mRNA, AC50).
Where [8] appears, read: Table 2A (THP), CJ mRNA decrease, read-out: MYB CJ (decrease in canonical junction mRNA, IC50).
The mark [9] stands for this setting: Table 2A (THP), AJ mRNA increase, read-out: HTT AJ (increase in alternative junction mRNA, AC50).
Setting [10] is: Table 2A (THP), CJ mRNA decrease, read-out: HTT CJ (decrease in canonical junction mRNA, IC50).
Where [11] appears, read: Table 2A, THP, MYB alternative junction (AJ) mRNA, read-out: MYB AJ (AC50, increase in alternative junction mRNA).
[12] abbreviates: Table 2A, THP, MYB canonical junction (CJ) mRNA, read-out: MYB CJ (IC50, decrease in canonical junction mRNA).
[13] abbreviates: Table 2A, THP, HTT alternative junction (AJ) mRNA, read-out: HTT AJ (AC50, increase in alternative junction mRNA).
[14] abbreviates: Table 2A, THP, HTT canonical junction (CJ) mRNA, read-out: HTT CJ (IC50, decrease in canonical junction mRNA).
Setting [15] is: decrease in CJ mRNA levels, canonical junction qPCR, gene panel.

With `Cc1cc2c(nc(NC(=O)c3ccc(N4CCC(NC5CC5)CC4)c4cn(C)nc34)n2C)c(C)n1` [Compound 597, 4-[4-(cyclopropylamino)-1-piperidyl]-2-methyl-N-(1,4,6-trimethylimidazo[4,5-c]-pyridin-2-yl)indazole-7-carboxamide], the IC50 in assay [1] (setting [6]), in assay [2] (setting [6]), in assay [4] (setting [8]) and in assay [5] (setting [10]) was greater than 10 µM each time. Besides, in assay [3], the GI50 fell in the range of 1 to 10 µM. The AC50 in assay [4] (setting [7]) and in assay [5] (setting [9]) was greater than 10 µM in each case.
Turning to `COc1nc2nccn2cc1NC(=O)c1ccc(N2CCC(NC3CC3)CC2)c2cn(C)nc12` [Compound 598, 4-[4-(cyclopropylamino)-1-piperidyl]-N-(7-methoxy-imidazo[1,2-a]pyrimidin-6-yl)-2-methyl-indazole-7-carboxamide], the IC50 in assay [1] (setting [6]) is greater than 10 µM; in assay [2] (setting [6]), 1 to 10 µM; in assay [4] (setting [8]), 1 to 10 µM; in assay [5] (setting [10]), greater than 10 µM. Besides, the GI50 in assay [3] lay within 1 to 10 µM. Also, the AC50 is 1 to 10 µM in assay [4] (setting [7]) and greater than 10 µM in assay [5] (setting [9]).
Take `Cc1cn2cc(NC(=O)c3ccc(N4CCC(NC5CC5)CC4)c4cn(C)nc34)nc2c(CN(C)C)n1` [Compound 600, 4-(4-(cyclopropylamino)piperidin-1-yl)-N-(8-((dimethylamino)methyl)-6-methylimidazo[1,2-a]pyrazin-2-yl)-2-methyl-2H-indazole-7-carboxamide bis(2,2,2-trifluoroacetate)]: the IC50 in assay [1] (setting [6]), in assay [2] (setting [6]), in assay [4] (setting [12]) and in assay [5] (setting [14]) was greater than 10 µM throughout. The GI50 in assay [3] is 1 to 10 µM. Moreover, the AC50 in assay [4] (setting [11]) and in assay [5] (setting [13]) was greater than 10 µM throughout.
Consider `Cc1cn2cc(NC(=O)c3ccc(N4CCCC(OC5CNC5)C4)c4cn(C)nc34)nc2c(C)n1` (centres unmarked) [Compound 601], for which the IC50 in assay [1] (setting [6]), in assay [2] (setting [6]), in assay [4] (setting [12]) and in assay [5] (setting [14]) was greater than 10 µM each time. Besides, in assay [3], the GI50 was greater than 10 µM. For the same compound, the AC50 in assay [4] (setting [11]) was 1 to 10 µM; in assay [5] (setting [13]), greater than 10 µM.
As for `COc1cc2nn(C)cc2cc1NC(=O)c1ccc(N2CCCC(OC3CNC3)C2)c2cn(C)nc12` (centres unmarked) [Compound 602], the IC50 in assay [1] (setting [6]), in assay [2] (setting [6]), in assay [4] (setting [12]) and in assay [5] (setting [14]) was greater than 10 µM in each case. The GI50 in assay [3] was greater than 10 µM. Further, the AC50 in assay [4] (setting [11]) and in assay [5] (setting [13]) was greater than 10 µM each time.
For the compound `CNC1CCC(Oc2ccc(C(=O)Nc3cc4cn(C)nc4cc3OC)c3nn(C)cc23)C1` (centres unmarked) [Compound 603], the IC50 in assay [1] (setting [6]) lay in the range of 1 to 10 µM; in assay [2] (setting [6]), 0.1 to 1 µM; in assay [4] (setting [12]), 0.1 to 1 µM; in assay [5] (setting [14]) it was 1 to 10 µM. The GI50 in assay [3] was 1 to 10 µM. Besides, the AC50 is 0.1 to 1 µM in assay [4] (setting [11]) and 1 to 10 µM in assay [5] (setting [13]).
Regarding `CCNC1CCN(c2ccc(C(=O)Nc3cn4cc(C)nc(C)c4n3)c3nn(C)cc23)CC1C` (centres unmarked) [Compound 604], the IC50 is 1 to 10 µM in assay [1] (setting [6]), greater than 10 µM in assay [2] (setting [6]), greater than 10 µM in assay [4] (setting [12]) and 1 to 10 µM in assay [5] (setting [14]). Besides, the GI50 in assay [3] lay within 1 to 10 µM. Further, the AC50 in assay [4] (setting [11]) is 1 to 10 µM; in assay [5] (setting [13]), greater than 10 µM.
Regarding `CCNC1CCN(c2ccc(C(=O)Nc3cc4cn(C)nc4cc3OC)c3nn(C)cc23)CC1C` (centres unmarked) [Compound 605], the IC50 is greater than 10 µM in assay [1] (setting [6]), 0.1 to 1 µM in assay [2] (setting [6]), 0.1 to 1 µM in assay [4] (setting [12]) and greater than 10 µM in assay [5] (setting [14]). The GI50 in assay [3] was 1 to 10 µM. Besides, the AC50 was 0.1 to 1 µM in assay [4] (setting [11]) and 1 to 10 µM in assay [5] (setting [13]).
As for `COc1nc2nc(C)cn2cc1NC(=O)c1cnc(N2CCC(NC3CC3)CC2)c2cn(C)nc12` [Compound 608, 4-[4-(cyclopropylamino)-1-piperidyl]-N-(7-methoxy-2-methyl-imidazo[1,2-a]-pyrimidin-6-yl)-2-methyl-pyrazolo-[4,3-c]pyridine-7-carboxamide], the IC50 was 0.1 to 1 µM in assay [1] (setting [15]), less than 0.1 µM in assay [2] (setting [15]), less than 0.1 µM in assay [4] (setting [12]) and 0.1 to 1 µM in assay [5] (setting [14]). For the same compound, the GI50 in assay [3] lay within 0.1 to 1 µM. Also, the AC50 in assay [4] (setting [11]) and in assay [5] (setting [13]) was less than 0.1 µM in each case.
Take `Cc1cn2cc(NC(=O)c3cnc(N4CCC(NC5CC5)CC4)c4cn(C)nc34)nc2c(C)n1` [Compound 609, 4-[4-(cyclopropylamino)-1-piperidyl]-N-(6,8-dimethylimidazo [1,2-a]pyrazin-2-yl)-2-methyl-pyrazolo[4,3-c]pyridine-7-carboxamide]: the IC50 in assay [1] (setting [15]) was greater than 10 µM; in assay [2] (setting [15]), 0.1 to 1 µM; in assay [4] (setting [12]), 0.1 to 1 µM; in assay [5] (setting [14]) it was greater than 10 µM. Besides, the GI50 in assay [3] is greater than 10 µM. Besides, the AC50 was less than 0.1 µM in assay [4] (setting [11]) and greater than 10 µM in assay [5] (setting [13]).
Consider `Cc1cn2cc(NC(=O)c3ccc(NC(=O)c4ncc[nH]4)c4[nH]cnc34)cc(F)c2n1` [Compound 610, 2,2,2-trifluoroacetate], for which the IC50 in assay [1] (setting [15]), in assay [2] (setting [15]), in assay [4] (setting [12]) and in assay [5] (setting [14]) was greater than 10 µM throughout. Besides, the GI50 in assay [3] is greater than 10 µM. Besides, the AC50 in assay [4] (setting [11]) and in assay [5] (setting [13]) was greater than 10 µM each time.
On to `CCNC1CCN(c2ccc(C(=O)Nc3cn4cc(C)nc(C)c4n3)c3nc(C)cn23)CC1` [Compound 612, N-(6,8-dimethyl-imidazo-[1,2-a]pyrazin-2-y1)-5-[4-(ethylamino)-1-piperidyl]-2-methyl-imidazo[1,2-a]pyridine-8-carboxamide], for which the IC50 is greater than 10 µM in assay [1] (setting [15]), 0.1 to 1 µM in assay [2] (setting [15]), 0.1 to 1 µM in assay [4] (setting [12]) and greater than 10 µM in assay [5] (setting [14]). For the same compound, the GI50 in assay [3] fell in the range of 1 to 10 µM. Further, the figures for the AC50 in assay [4] (setting [11]) and in assay [5] (setting [13]) were 0.1 to 1 µM and greater than 10 µM, respectively.
Consider `Cc1cn2cc(NC(=O)c3ccc(NC(=O)C4CCCN4)c4[nH]cnc34)cc(F)c2n1` (centres unmarked) [Compound 613, N-(8-fluoro-2-methyl-imidazo[1,2-a]pyridin-6-yl)-7-(pyrrolidine-2-carbonylamino)-1H-benzimidazole-4-carboxamide], for which the IC50 in assay [1] (setting [15]), in assay [2] (setting [15]), in assay [4] (setting [12]) and in assay [5] (setting [14]) was 1 to 10 µM each time. In addition, the GI50 in assay [3] is greater than 10 µM. The values for the AC50 in assay [4] (setting [11]) and in assay [5] (setting [13]) were 1 to 10 µM and greater than 10 µM, respectively.
Consider `Cc1cn2cc(NC(=O)c3ccc(NC(=O)C4CCNC4)c4[nH]cnc34)cc(F)c2n1` (centres unmarked) [Compound 614, N-(8-fluoro-2-methyl-imidazo[1,2-a]pyridin-6-yl)-7-(pyrrolidine-3-carbonylamino)-1H-benzimidazole-4-carboxamide], for which the IC50 in assay [1] (setting [15]), in assay [2] (setting [15]), in assay [4] (setting [12]) and in assay [5] (setting [14]) was 1 to 10 µM throughout. Also, the GI50 in assay [3] is greater than 10 µM. Also, the AC50 in assay [4] (setting [11]) was 1 to 10 µM; in assay [5] (setting [13]) it was greater than 10 µM.
Turning to `CCNC1CCN(c2ccc(C(=O)Nc3cn4cc(C)nc(C)c4n3)n3nc(C)cc23)CC1` [Compound 615, N-(6,8-dimethylimidazo[1,2-a]-pyrazin-2-y1)-4-[4-(ethylamino)-1-piperidyl]-2-methyl-pyrazolo[1,5-a]-pyridine-7-carboxamide], the IC50 in assay [1] (setting [15]) is 1 to 10 µM; in assay [2] (setting [15]) it was 0.1 to 1 µM; in assay [4] (setting [12]) it was 0.1 to 1 µM; in assay [5] (setting [14]) it was 1 to 10 µM. Moreover, in assay [3], the GI50 fell in the range of 1 to 10 µM. The AC50 in assay [4] (setting [11]) and in assay [5] (setting [13]) was 1 to 10 µM in each case.
Take `Cc1cn2cc(NC(=O)c3ccc(N4CCC(NC5CC5)CC4)c4cc(CO)nn34)nc2c(C)n1` [Compound 616, 4-[4-(cyclopropylamino)-1-piperidyl]-N-(6,8-dimethylimidazo[1,2-a]pyrazin-2-yl)-2-(hydroxymethyl) pyrazolo[1,5-a]-pyridine-7-carboxamide]: the IC50 in assay [1] (setting [15]), in assay [2] (setting [15]), in assay [4] (setting [12]) and in assay [5] (setting [14]) was 1 to 10 µM each time. Moreover, the GI50 in assay [3] was 1 to 10 µM. For the same compound, the AC50 in assay [4] (setting [11]) and in assay [5] (setting [13]) was 1 to 10 µM in each case.
For `Cc1cn2cc(NC(=O)c3ccc(N4CCC(NC5CC5)CC4)c4cc(CF)nn34)nc2c(C)n1` [Compound 617, 4-[4-(cyclopropylamino)-1-piperidyl]-N-(6,8-dimethylimidazo[1,2-a]pyrazin-2-yl)-2-(fluoromethyl)-pyrazolo[1,5-a]pyridine-7-carboxamide], the IC50 is greater than 10 µM in assay [1] (setting [15]), 1 to 10 µM in assay [2] (setting [15]), 1 to 10 µM in assay [4] (setting [12]) and greater than 10 µM in assay [5] (setting [14]). Moreover, the GI50 in assay [3] was in the range of 1 to 10 µM. Besides, the AC50 in assay [4] (setting [11]) is 0.1 to 1 µM; in assay [5] (setting [13]), greater than 10 µM.

Values taken from US20260285853A1, “COMPOUNDS AND METHODS FOR MODULATING SPLICING” (REMIX THERAPEUTICS INC., priority 2023, published 2026).
